Values after ≈ are worked out from the molar mass of the structure shown. Read-outs that look alike come from different tables or passages of the source.
What was measured:
[1] = test system: Mycobacterium smegmatis CCM 4622 (ATCC 607); experiment: Antimycobacterial microdilution, M. smegmatis; format: cell-based; conditions: Mycolicibacterium smegmatis, read-out: M. smeg. ATCC 607 MIC
[2] = test system: Aspergillus fumigatus 231; experiment: Antifungal microdilution broth, AF; format: cell-based; conditions: read-out: MIC AF
Candida tropicalis 156 = experiment: Antifungal microdilution broth, CT; format: cell-based; conditions: read-out: MIC CT
[3] = test system: Escherichia coli CCM 4517; experiment: Antibacterial microdilution broth, EC; format: cell-based; conditions: Escherichia coli, read-out: MIC EC
[4] = test system: Candida albicans ATCC 44859; experiment: Antifungal microdilution broth, CA; format: cell-based; conditions: Candida albicans, read-out: MIC CA
[5] = test system: Staphylococcus aureus H 5996/08 methicillin resistant; experiment: microbe, parasite or virus in culture; format: cell-based; conditions: Staphylococcus aureus, MRSA, read-out: MIC MRSA
[6] = test system: Staphylococcus epidermidis H 6966/08; experiment: Antibacterial microdilution broth, SE; format: cell-based; conditions: Staphylococcus epidermidis, read-out: MIC SE
[7] = test system: M. avium ssp. avium CNCTC My 80/72 (ATCC 15769); experiment: Antimycobacterial microdilution MABA, M. avium; format: cell-based, Mycobacterium avium; conditions: for MIC: Mycobacterium avium
[8] = test system: Trichophyton interdigitale 445; experiment: Antifungal microdilution broth, TI; format: cell-based; conditions: read-out: MIC TI
[9] = test system: Pseudomonas aeruginosa CCM 1961; experiment: Antibacterial microdilution broth, PA; format: cell-based; conditions: Pseudomonas aeruginosa, read-out: MIC PA
[10] = test system: Staphylococcus aureus CCM 4516/08; experiment: Antibacterial microdilution broth, SA; format: cell-based; conditions: Staphylococcus aureus
Candida krusei E28 = experiment: Antifungal microdilution broth, CK; format: cell-based; conditions: Pichia kudriavzevii, read-out: MIC CK
[11] = test system: Lichtheimia corymbifera 272; experiment: Antifungal microdilution broth, LC; format: cell-based; conditions: read-out: MIC LC
Trichosporon asahii 1188 = experiment: Antifungal microdilution broth, TA; format: cell-based; conditions: read-out: MIC TA
[12] = test system: Enterococcus sp. J 14365/08; experiment: Antibacterial microdilution broth, EF; format: cell-based; conditions: Enterococcus, read-out: MIC EF
[13] = test system: M. kansasii CNCTC My 235/80 (ATCC 12478); experiment: Antimycobacterial microdilution MABA, M. kansasii; format: cell-based, Mycobacterium kansasii; conditions: Mycobacterium kansasii
Candida glabrata 20/I = experiment: Antifungal microdilution broth, CG; format: cell-based; conditions: Nakaseomyces glabratus, 20/I, read-out: MIC CG
[14] = test system: Mycobacterium tuberculosis H37Rv CNCTC My 331/88 (ATCC 27294); experiment: Antimycobacterial microdilution MABA, M. tuberculosis; format: cell-based; conditions: for MIC: Mycobacterium tuberculosis
[15] = Aspergillus fumigatus, 231, 24 h
[16] = Aspergillus fumigatus, 231, 48 h
[17] = ATCC15769, pH 6.6, read-out: M. avium ATCC 15769 MIC
[18] = Trichophyton interdigitale, 445, 72 h
[19] = Trichophyton interdigitale, 445, 120 h
[20] = CCM4516, 24 h, read-out: MIC SA, 24 h
[21] = CCM4516, 48 h, read-out: MIC SA, 48 h
[22] = Lichtheimia corymbifera, 272, 24 h
[23] = Lichtheimia corymbifera, 272, 48 h
[24] = Trichosporon asahii, 1188, 24 h
[25] = Trichosporon asahii, 1188, 48 h
[26] = ATCC12478, pH 6.6, read-out: M. kans. ATCC 12478 MIC, Middlebrook 7H9 with OADC, pH 6.6, MABA
[27] = read-out: Mtb H37Rv ATCC 27294 MIC, Middlebrook 7H9 with OADC growth supplement, pH = 6.6, MABA
[28] = Middlebrook 7H9 with OADC growth supplement, pH = 6.6, MABA
[29] = Middlebrook 7H9 with OADC, resazurin
[30] = ATCC15769, Middlebrook 7H9 with OADC, pH 6.6, MABA, read-out: M. avium ATCC 15769 MIC
[31] = ATCC12478, Middlebrook 7H9 with OADC, pH 6.6, MABA, read-out: M. kans. ATCC 12478 MIC
[32] = Middlebrook 7H9 with OADC growth supplement, pH = 6.6, MABA, read-out: Mtb H37Rv ATCC 27294 MIC

| SMILES | MIC [1] | MIC [2, 15] | MIC [2, 16] | MIC (Candida tropicalis 156; Candida tropicalis, 156, 24 h) | MIC (Candida tropicalis 156; Candida tropicalis, 156, 48 h) | MIC ([3]; CCM4517, 24 h) | MIC ([3]; CCM4517, 48 h) | MIC ([4]; ATCC44859, 24 h) | MIC ([4]; ATCC44859, 48 h) | MIC ([5]; 24 h) | MIC ([5]; 48 h) | MIC ([6]; H6966/08, 24 h) | MIC ([6]; H6966/08, 48 h) | melting point | MIC [7, 17] | Mtb H37Rv ATCC 27294 MIC [14, 28] | MIC [1, 29] | MIC [7, 30] | MIC [13, 31] | MIC [14, 32] | also measured |
| --- | --- | --- | --- | --- | --- | --- | --- | --- | --- | --- | --- | --- | --- | --- | --- | --- | --- | --- | --- | --- | --- |
| CC(=O)Oc1ccc(C(=O)Nc2cnccn2)cc1 [Compound 1d-Ac] | ≥ 500 µg/mL | > 500 µM | > 500 µM | > 500 µM | > 500 µM | > 500 µM | > 500 µM | > 500 µM | > 500 µM | > 500 µM | > 500 µM | > 500 µM | > 500 µM | 147.4 to 149.4 °C | > 100 µg/mL |  |  |  |  |  | MIC [8, 18]: > 500 µM; MIC [8, 19]: > 500 µM; MIC ([9]; CCM1961, 72 h): > 500 µM; MIC ([9]; CCM1961, 120 h): > 500 µM; MIC [10, 20]: > 500 µM; MIC [10, 21]: > 500 µM; MIC (Candida krusei E28; E28, 24 h): > 500 µM; MIC (Candida krusei E28; E28, 48 h): > 500 µM; MIC [11, 22]: > 500 µM; MIC [11, 23]: > 500 µM; MIC (Trichosporon asahii 1188; [24]): > 500 µM; MIC (Trichosporon asahii 1188; [25]): > 500 µM; MIC ([12]; SP.J14365/08, 24 h): > 500 µM; MIC ([12]; SP.J14365/08, 48 h): > 500 µM; MIC [13, 26]: > 100 µg/mL; MIC (Candida glabrata 20/I; 24 h): > 500 µM; MIC (Candida glabrata 20/I; 48 h): > 500 µM; MIC [14, 27]: > 100 µg/mL |
| COc1ccccc1C(=O)Nc1cnccn1 [Compound 1e] | 125 µg/mL (≈ 545 µM) | > 500 µM | > 500 µM | > 500 µM | > 500 µM | > 500 µM | > 500 µM | > 500 µM | > 500 µM | > 500 µM | > 500 µM | > 500 µM | > 500 µM | 100.3 to 102.4 °C | > 100 µg/mL | >100 µg/mL |  |  |  |  | M. avium ATCC 15769 MIC ([7]; Middlebrook 7H9 with OADC, pH 6.6, MABA): >100 µg/mL; MIC [8, 18]: > 500 µM; MIC [8, 19]: > 500 µM; MIC ([9]; CCM1961, 72 h): > 500 µM; MIC ([9]; CCM1961, 120 h): > 500 µM; MIC [10, 20]: > 500 µM; MIC [10, 21]: > 500 µM; MIC (Candida krusei E28; E28, 24 h): > 500 µM; MIC (Candida krusei E28; E28, 48 h): > 500 µM; MIC [11, 22]: > 500 µM; MIC [11, 23]: > 500 µM; MIC (Trichosporon asahii 1188; [24]): > 500 µM; MIC (Trichosporon asahii 1188; [25]): > 500 µM; MIC ([12]; SP.J14365/08, 24 h): > 500 µM; MIC ([12]; SP.J14365/08, 48 h): > 500 µM; MIC [13, 26]: 100 µg/mL (≈ 436 µM); MIC (Candida glabrata 20/I; 24 h): > 500 µM; MIC (Candida glabrata 20/I; 48 h): > 500 µM; MIC [14, 27]: > 100 µg/mL |
| COc1ccc(C(=O)Nc2cncc(Cl)n2)cc1 [Compound 3g] |  |  |  |  |  |  |  |  |  |  |  |  |  | 196.9 to 198.8 °C |  |  | ≥ 500 µg/mL | > 100 µg/mL | > 100 µg/mL | > 100 µg/mL |  |
| Cc1ccc(C(=O)Nc2cncc(Cl)n2)cc1 [Compound 3h] |  |  |  |  |  |  |  |  |  |  |  |  |  | 169.1 to 170 °C |  | >100 µg/mL | ≥ 500 µg/mL | > 100 µg/mL | > 100 µg/mL | > 100 µg/mL |  |
| O=C(Nc1cncc(Cl)n1)c1ccc(Cl)cc1 [Compound 3l] |  |  |  |  |  |  |  |  |  |  |  |  |  | 193.8 to 194.7 °C |  | >100 µg/mL | ≥ 500 µg/mL | > 100 µg/mL | > 100 µg/mL | > 100 µg/mL |  |

Source: publication PMC6225228, “Design, Synthesis and Evaluation of N-pyrazinylbenzamides as Potential Antimycobacterial Agents” (Molecules : A Journal of Synthetic Chemistry and Natural …, 2018)
